Converted amounts (≈) assume the structure as drawn. Where two headings read alike, the source gives them in different places.
Columns and labels:
Type in all cases: cell-based
S. pneumoniae ATCC 49619 = experiment: MIC against S. pneumoniae ATCC 49619; details: Streptococcus pneumoniae, ATCC49619, S. pneumoniae ATCC 49619; read-out: MIC
[1] = system: S. aureus MP-549 msr(a) USA 300; experiment: MIC against S. aureus MP-549 msr(a) USA 300; details: Staphylococcus aureus, USA300, S. aureus MP-549 msr(a) USA 300
S. aureus BAA 977 iErmA = experiment: MIC against S. aureus BAA 977 iErmA; details: Staphylococcus aureus, BAA977
E. faecalis ATCC 29212 = experiment: MIC against E. faecalis ATCC 29212; details: Enterococcus faecalis, ATCC29212, E. faecalis ATCC 29212; read-out: MIC
S. aureus ATCC 29213 = experiment: MIC against S. aureus ATCC 29213; details: Staphylococcus aureus, ATCC29213, S. aureus ATCC 29213; read-out: MIC
H. influenzae ATCC 49247 = experiment: MIC against H. influenzae ATCC 49247; details: Haemophilus influenzae, ATCC49247, H. influenzae ATCC 49247; read-out: MIC
K. pneumoniae ATCC 10031 = experiment: MIC against K. pneumoniae ATCC 10031; details: Klebsiella pneumoniae, ATCC10031, read-out: MIC
E. coli ATCC 25922 = experiment: MIC against E. coli ATCC 25922; details: Escherichia coli, ATCC25922, read-out: MIC
S. pyogenes ATCC 19615 = experiment: MIC against S. pyogenes ATCC 19615; details: Streptococcus pyogenes, ATCC19615, S. pyogenes ATCC 19615; read-out: MIC
C. difficile BAA 1805 = experiment: MIC against C. difficile BAA 1805; details: Clostridioides difficile, BAA1805
[2] = system: E. coli MP-74 LptD mutant; experiment: MIC against E. coli MP-74 LptD mutant; details: Escherichia coli
E. coli MP-9 ΔTolC = experiment: MIC against E. coli MP-9 ΔTolC; details: Escherichia coli
[3] = system: E. faecalis MMX 847 MacRes; experiment: MIC against E. faecalis MMX 847 MacRes; details: Enterococcus faecalis, MMX847MACRES
S. aureus MMX 3035 cErmA = experiment: MIC against S. aureus MMX 3035 cErmA; details: Staphylococcus aureus, MMX3035CERMA
[4] = system: S. pyogenes MMX 946 Macrolide-Resistant; experiment: MIC against S. pyogenes MMX 946 Macrolide-Resistant; details: Streptococcus pyogenes
[5] = system: S. pneumoniae MMX 3031 cMefA; experiment: MIC against S. pneumoniae MMX 3031 cMefA; details: Streptococcus pneumoniae, MMX3031CMEFA
[6] = system: S. pneumoniae MMX 3028 cErmB; experiment: MIC against S. pneumoniae MMX 3028 cErmB; details: Streptococcus pneumoniae, MMX3028CERMB
B. fragilis ATCC 25285 = experiment: MIC against B. fragilis ATCC 25285; details: Bacteroides fragilis, ATCC25285
[7] = S. pyogenes MMX 946 Macrolide-Resistant (MacRes), read-out: MIC
[8] = S. pneumoniae MMX 3028 cErmB, read-out: MIC

Structure (SMILES)	MIC (S. pneumoniae ATCC 49619) [µg/mL]	MIC [1] [µg/mL]	MIC (S. aureus BAA 977 iErmA) [µg/mL]	MIC (E. faecalis ATCC 29212) [µg/mL]	MIC (S. aureus ATCC 29213) [µg/mL]	MIC (H. influenzae ATCC 49247) [µg/mL]	MIC (K. pneumoniae ATCC 10031) [µg/mL]	MIC (E. coli ATCC 25922) [µg/mL]	MIC (S. pyogenes ATCC 19615) [µg/mL]	MIC (C. difficile BAA 1805) [µg/mL]	MIC [2] [µg/mL]	MIC (E. coli MP-9 ΔTolC) [µg/mL]	MIC [3] [µg/mL]	MIC (S. aureus MMX 3035 cErmA) [µg/mL]	MIC [4, 7] [µg/mL]	MIC [5] [µg/mL]	MIC [6, 8] [µg/mL]	MIC (B. fragilis ATCC 25285) [µg/mL]	MIC [4] [µg/mL]	MIC [6] [µg/mL]
CCC[C@@H]1C[C@@H](C(=O)N[C@@H]([C@H]2OC(SC)[C@H](O)C(O)C2O)[C@H](C)N(C)C)N(C)C1 (stereo partly drawn) [FSA-215070]	16 (≈ 36.9 µM)	64 (≈ 148 µM)	64 (≈ 148 µM)	> 64	64 (≈ 148 µM)	> 64	> 64	> 64	32 (≈ 73.8 µM)	> 64	> 64	> 64								
CCC[C@@H]1C[C@@H](C(=O)N[C@H]([C@H](C)NC(=O)CN(C)C)[C@H]2OC(SC)[C@H](O)C(O)C2O)N(C)C1 (stereo partly drawn) [FSA-215078b]	8 (≈ 16.3 µM)	> 64	> 64	> 64	> 64	> 64	> 64	> 64	8 (≈ 16.3 µM)	> 64	> 64	> 64								
CCC[C@@H]1C[C@@H](C(=O)N[C@H]([C@H](C)NC(=O)CN)[C@H]2OC(SC)[C@H](O)C(O)C2O)N(C)C1 (stereo partly drawn) [FSA-215071]	8 (≈ 17.3 µM)	> 64	> 64	> 64	> 64	> 64	> 64	> 64	16 (≈ 34.6 µM)	> 64	> 64	> 64								
CCC[C@@H]1C[C@@H](C(=O)N[C@H](CN=[N+]=[N-])[C@H]2OC(SC)[C@H](O)C(O)C2O)N(C)C1 (stereo partly drawn) [FSA-215003]	4 (≈ 9.58 µM)	0.125 (≈ 0.299 µM)		32 (≈ 76.6 µM)	8 (≈ 19.2 µM)			> 64	2 (≈ 4.79 µM)			4 (≈ 9.58 µM)	> 64	> 64	> 64	0.125 (≈ 0.299 µM)	> 64			
CCC[C@@H]1C[C@@H](C(=O)N[C@H]([C@H](C)NC)[C@H]2OC(SC)[C@H](O)C(O)C2O)N(C)C1 (stereo partly drawn) [FSA-215082]	16 (≈ 38.1 µM)	> 64	64 (≈ 153 µM)	> 64	64 (≈ 153 µM)	> 64	> 64	> 64	32 (≈ 76.3 µM)	> 64	> 64	> 64						> 64		
CCC[C@@H]1C[C@@H](C(=O)N[C@H]([C@H](C)NC(=N)N)[C@H]2OC(SC)[C@H](O)C(O)C2O)N(C)C1 (stereo partly drawn) [FSA-215059]	8 (≈ 17.9 µM)		32 (≈ 71.5 µM)	> 64	32 (≈ 71.5 µM)		> 64	> 64	4 (≈ 8.94 µM)		> 64	> 64								
CCC[C@@H]1C[C@@H](C(=O)N[C@@H]([C@H]2OC(SC)[C@H](O)C(O)C2O)[C@H](C)N(C)Cc2ccccc2[N+](=O)[O-])N(C)C1 (stereo partly drawn) [FSA-215081]	2 (≈ 3.61 µM)	4 (≈ 7.21 µM)	4 (≈ 7.21 µM)	> 64	4 (≈ 7.21 µM)	> 64	> 64	> 64	1 (≈ 1.8 µM)		> 64	> 64								
CCC[C@@H]1C[C@@H](C(=O)N[C@H]([C@H](C)NC(=O)CNC)[C@H]2OC(SC)[C@H](O)C(O)C2O)N(C)C1 (stereo partly drawn) [FSA-215078a]	16 (≈ 33.6 µM)	> 64	> 64	> 64	> 64	> 64	> 64	> 64	8 (≈ 16.8 µM)	> 64	> 64	> 64						> 64		
CCC[C@@H]1C[C@@H](C(=O)N[C@H](CN)[C@H]2OC(SC)[C@H](O)C(O)C2O)N(C)C1 (stereo partly drawn) [FSA-215077]	> 64	> 64	> 64	> 64	> 64	> 64	> 64	> 64	> 64		> 64	> 64								
CCC[C@@H]1C[C@@H](C(=O)N[C@@H]([C@H]2O[C@H](SC)[C@H](O)[C@@H](O)[C@H]2O)[C@H](C)Cl)N(C)C1 [Clindamycin, clindamycin, reference compound]	0.12 (≈ 0.282 µM)	0.125 (≈ 0.294 µM)		16 (≈ 37.6 µM)		16 (≈ 37.6 µM)	8 (≈ 18.8 µM)		0.06 (≈ 0.141 µM)	8 (≈ 18.8 µM)	2 (≈ 4.71 µM)	8 (≈ 18.8 µM)				0.06 (≈ 0.141 µM)		0.5 (≈ 1.18 µM)	> 64	> 64
CCC[C@@H]1C[C@@H](C(=O)N[C@H](CNc2ccc(-c3cccnc3)cc2)[C@H]2OC(SC)[C@H](O)C(O)C2O)N(C)C1 (stereo partly drawn) [FSA-214087]	8 (≈ 14.7 µM)	32 (≈ 58.7 µM)		> 64	32 (≈ 58.7 µM)			> 64	8 (≈ 14.7 µM)			> 64	> 64	> 64	> 64	32 (≈ 58.7 µM)	> 64			
CCC[C@@H]1C[C@@H](C(=O)N[C@H]([C@H](C)N)[C@H]2OC(SC)[C@H](O)C(O)C2O)N(C)C1 (stereo partly drawn) [FSA-215049, 7-(S)-deoxyaminolincomycin]	8 (≈ 19.7 µM)	32 (≈ 78.9 µM)	64 (≈ 158 µM)	> 64	64 (≈ 158 µM)	> 64	> 64	> 64	16 (≈ 39.5 µM)	> 64	> 64	> 64								
CCC[C@@H]1C[C@@H](C(=O)N[C@H]([C@H](C)NC(=O)CCCN)[C@H]2OC(SC)[C@H](O)C(O)C2O)N(C)C1 (stereo partly drawn) [FSA-215052]	> 64		> 64	> 64	> 64		> 64	> 64	32 (≈ 65.2 µM)			> 64								
CCC[C@@H]1C[C@@H](C(=O)N[C@@H]([C@H]2OC(SC)[C@H](O)C(O)C2O)[C@H](C)n2cc(CN)nn2)N(C)C1 (stereo partly drawn) [FSA-215072]	8 (≈ 16.4 µM)		> 64	> 64	> 64		> 64	> 64	8 (≈ 16.4 µM)		> 64	> 64								
CCC[C@@H]1C[C@@H](C(=O)N[C@@H]([C@H]2OC(SC)[C@H](O)C(O)C2O)[C@H](C)n2ccnc2)N(C)C1 (stereo partly drawn) [FSA-215064]	16 (≈ 35 µM)		> 64	> 64	64 (≈ 140 µM)		> 64	> 64	8 (≈ 17.5 µM)		> 64	> 64								

Reference: US11566039B2, “Lincosamide antibiotics and uses thereof” (President and Fellows of Harvard College, priority 2017, dated 2023)
